# Strand notation (5' to 3'): a small letter for the sugar, then the base; units joined by * are phosphorothioate-linked, units joined directly phosphodiester-linked; [ ] holds rarer units or linkages, { } end groups; capitals alone tell only the bases. e = 2'-O-(2-methoxyethyl) (MOE); [5mC] = 5-methylcytosine; d = 2'-deoxy (DNA)
# System: human SMAD7 mRNA
# Assay: Antisense inhibition of human SMAD7 mRNA expression in Hep3B cells by 5-10-5 MOE gapmers, single concentration, electroporation, RT-PCR (Example 1, Study 1 and 2)
# Type: cell-based
# How it was run: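 Readout is percent SMAD7 mRNA inhibition versus untreated cells, measured by qRT-PCR (RTS5062) and corrected for total RNA by RIBOGREEN. Oligonucleotide, 5,000 nM or 15,000 nM, was delivered by electroporation into Hep3B cells at 20,000 per well. RNA was collected about 24 h later.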
# [1] = electroporation, 15,000 nM antisense oligonucleotide (Study 2), 5-10-5 MOE gapmers targeting SEQ ID NO: 1 and 2
# [2] = Study 2, electroporation with 15,000 nM antisense oligonucleotide, 5-10-5 MOE gapmers targeting SEQ ID NO: 1 and 2
# [3] = electroporation with 15,000 nM antisense oligonucleotide (Study 2), 5-10-5 MOE gapmers targeting SEQ ID NO: 1 and 2
# [4] = electroporation, 5,000 nM, approximately 24 hours, relative to untreated control cells, gapmers targeting SEQ ID NO: 1 and 2
# [5] = electroporation, 15,000 nM, approximately 24 hours, relative to untreated control cells, gapmers targeting SEQ ID NO: 1 and 2
substance,measurement,setting,value
771954 (antisense e[5mC]*eT*eA*eG*eA*dA*dT*dG*dA*dA*dG*dA*d[5mC]*dA*d[5mC]*e[5mC]*e[5mC]*eG*e[5mC]*e[5mC]) [compound 771954],% inhibition of SMAD7 mRNA expression,[1],0%
771601 (antisense eG*eA*eT*eG*eG*d[5mC]*d[5mC]*dA*dA*dA*dA*dA*dA*dG*dA*eA*eA*eG*eA*e[5mC]) [compound 771601],% inhibition of SMAD7 mRNA expression,[1],13%
771518 (antisense eA*eA*eG*e[5mC]*eA*d[5mC]*dT*d[5mC]*dA*dG*dG*dA*dG*dG*dA*eA*eA*eA*eT*eA) [compound 771518],% inhibition of SMAD7 mRNA expression,[2],4%
771834 (antisense eA*eA*e[5mC]*eA*eT*dA*dA*dA*dG*dT*dT*d[5mC]*dT*d[5mC]*dA*eA*eA*e[5mC]*eA*eG) [compound 771834],% inhibition of SMAD7 mRNA expression,[1],25%
771719 (antisense eA*e[5mC]*eT*eG*eA*d[5mC]*dT*dT*dG*d[5mC]*dA*dG*dG*dT*dG*eA*e[5mC]*eT*eG*eG) [compound 771719],% Inhibition,[2],35%
771408 (antisense eT*eG*e[5mC]*eT*eA*dA*dG*dG*dA*dG*d[5mC]*dG*dA*dA*d[5mC]*eA*eT*eG*eA*e[5mC]) [compound 771408],% Inhibition,[2],36%
771890 (antisense eA*eG*eT*e[5mC]*eT*dG*dA*dA*dG*d[5mC]*d[5mC]*d[5mC]*d[5mC]*d[5mC]*dA*eA*e[5mC]*e[5mC]*eT*eG) [compound 771890],% inhibition of SMAD7 mRNA expression,[1],14%
771417 (eA*e[5mC]*e[5mC]*eG*eG*d[5mC]*d[5mC]*d[5mC]*d[5mC]*dA*dT*dG*d[5mC]*dG*d[5mC]*eT*e[5mC]*eG*eG*e[5mC]; antisense) [compound 771417],% Inhibition of SMAD7 mRNA,[3],24%
same,% inhibition of SMAD7 mRNA expression,[1],16%
771535 (antisense eA*eA*e[5mC]*eA*eA*dA*dA*d[5mC]*dA*dG*dA*dA*d[5mC]*dA*d[5mC]*eA*eA*eA*e[5mC]*eG) [compound 771535],% inhibition of SMAD7 mRNA expression,[2],17%
771841 (antisense eT*eT*eT*eA*eG*dA*dA*dA*d[5mC]*d[5mC]*d[5mC]*dA*dG*dA*dG*eA*e[5mC]*eA*eA*eA) [compound 771841],% inhibition of SMAD7 mRNA expression,[1],36%
771364 (antisense eT*eA*eA*eT*eG*dG*dT*d[5mC]*dT*dG*d[5mC]*dT*d[5mC]*dA*dG*eG*e[5mC]*eT*eT*e[5mC]) [compound 771364],% inhibition of SMAD7 mRNA expression,[1],23%
771758 (antisense eA*eT*eT*eA*e[5mC]*d[5mC]*dA*dG*dT*d[5mC]*d[5mC]*d[5mC]*d[5mC]*d[5mC]*dA*eT*eT*eA*e[5mC]*eG) [compound 771758],% Inhibition,[2],0%
771544 (antisense eA*eA*eA*eA*e[5mC]*d[5mC]*d[5mC]*d[5mC]*d[5mC]*dA*dA*d[5mC]*dA*dA*dT*eT*e[5mC]*eT*eT*eT) [compound 771544],% Inhibition of SMAD7 mRNA,[3],16%
same,% inhibition of SMAD7 mRNA expression,[1],0%
771731 (antisense eA*eA*eA*eA*e[5mC]*dT*dT*dT*dG*dT*dG*d[5mC]*d[5mC]*dT*dG*eT*eT*eT*e[5mC]*eA) [compound 771731],% Inhibition,[2],54%
same,% inhibition of SMAD7 mRNA expression,[4],44%
582468 (antisense eG*e[5mC]*e[5mC]*eA*eA*dT*dA*dT*d[5mC]*dA*dT*dA*dA*d[5mC]*d[5mC]*e[5mC]*eA*eA*eG*e[5mC]) [compound 582468],% inhibition of SMAD7 mRNA expression,[2],4%
same,% inhibition of SMAD7 mRNA expression,[3],0%
771488 (antisense e[5mC]*eT*eG*eA*eT*d[5mC]*dT*dG*d[5mC]*dA*d[5mC]*dG*dG*dT*dA*eA*eA*eG*e[5mC]*e[5mC]) [compound 771488],% inhibition of SMAD7 mRNA expression,[2],53%
771421 (eG*e[5mC]*e[5mC]*e[5mC]*eT*dG*d[5mC]*d[5mC]*d[5mC]*dG*dG*dG*d[5mC]*d[5mC]*dG*e[5mC]*e[5mC]*eG*e[5mC]*e[5mC]; antisense) [compound 771421],% Inhibition,[2],0%
771594 (antisense eG*eG*e[5mC]*e[5mC]*eA*d[5mC]*dT*dA*dG*d[5mC]*dA*dG*dG*d[5mC]*dT*e[5mC]*eG*e[5mC]*eT*eG) [compound 771594],% inhibition of SMAD7 mRNA expression,[1],37%
771933 (antisense eA*eT*e[5mC]*eG*eA*dG*dG*dT*dG*d[5mC]*d[5mC]*d[5mC]*d[5mC]*d[5mC]*dA*eT*eG*e[5mC]*e[5mC]*eA) [compound 771933],% inhibition of SMAD7 mRNA expression,[5],31%
771510 (antisense eA*eG*eT*eG*eT*dG*dG*d[5mC]*d[5mC]*dT*dG*d[5mC]*dT*d[5mC]*dA*eG*e[5mC]*eT*e[5mC]*eA) [compound 771510],% inhibition of SMAD7 mRNA expression,[2],35%
771744 (antisense eG*eG*e[5mC]*eT*eA*dT*dT*d[5mC]*d[5mC]*d[5mC]*dA*dA*dG*dA*dG*eT*e[5mC]*e[5mC]*eA*eG) [compound 771744],% Inhibition of SMAD7 mRNA,[3],40%
same,% inhibition of SMAD7 mRNA expression,[1],23%
771725 (antisense e[5mC]*eT*eT*eG*eA*dG*dG*dG*dA*dG*d[5mC]*dT*dG*dG*dT*eA*eG*eA*eG*eT) [compound 771725],% inhibition of SMAD7 mRNA expression,[5],8%
771527 (antisense eG*eA*eG*eT*eT*dT*dG*d[5mC]*dA*dT*dG*dA*dA*dA*dA*eG*e[5mC]*eA*eA*eG) [compound 771527],% inhibition of SMAD7 mRNA expression,[2],0%
771353 (antisense eT*eT*e[5mC]*e[5mC]*eA*dT*d[5mC]*d[5mC]*dA*dA*d[5mC]*dT*d[5mC]*dT*d[5mC]*eT*eT*eT*eG*e[5mC]) [compound 771353],% Inhibition,[2],0%
771922 (antisense eA*eA*eA*eT*eT*d[5mC]*d[5mC]*dT*dT*dT*dA*dA*dG*dG*dT*eG*eT*eT*eG*e[5mC]) [compound 771922],% inhibition of SMAD7 mRNA expression,[1],29%
771365 (antisense eA*eT*eT*eA*eT*dT*dA*dA*dT*dG*dG*dT*d[5mC]*dT*dG*e[5mC]*eT*e[5mC]*eA*eG) [compound 771365],% inhibition of SMAD7 mRNA expression,[1],5%
771404 (antisense e[5mC]*eG*eA*eA*e[5mC]*dA*dT*dG*dA*d[5mC]*d[5mC]*dT*d[5mC]*d[5mC]*dG*e[5mC]*eA*e[5mC]*eA*e[5mC]) [compound 771404],% inhibition of SMAD7 mRNA expression,[1],51%
771911 (antisense eA*eT*eG*eG*eT*d[5mC]*d[5mC]*dA*dG*d[5mC]*dA*dG*dA*dG*d[5mC]*eA*eG*eA*eA*eG) [compound 771911],% Inhibition,[2],20%
771826 (antisense e[5mC]*eA*e[5mC]*e[5mC]*eA*dT*d[5mC]*d[5mC]*dT*dG*dG*dT*dT*d[5mC]*dG*e[5mC]*eA*eG*eT*e[5mC]) [compound 771826],% inhibition of SMAD7 mRNA expression,[1],31%
771720 (antisense e[5mC]*eA*eG*eG*e[5mC]*dA*dG*dA*dG*d[5mC]*dT*dA*dT*dG*d[5mC]*eT*eT*e[5mC]*eA*eA) [compound 771720],% Inhibition of SMAD7 mRNA,[3],37%
same,% inhibition of SMAD7 mRNA expression,[1],20%
771898 (antisense eG*eG*eT*eG*eT*dG*dA*dG*d[5mC]*dT*dG*dT*dG*dG*dA*e[5mC]*eA*e[5mC]*eA*eG) [compound 771898],% inhibition of SMAD7 mRNA expression,[1],27%
771536 (antisense eA*eG*e[5mC]*eG*eA*dA*dA*d[5mC]*dA*dA*dA*dA*d[5mC]*dA*dG*eA*eA*e[5mC]*eA*e[5mC]) [compound 771536],% Inhibition of SMAD7 mRNA,[3],25%
same,% inhibition of SMAD7 mRNA expression,[1],0%
771412 (eT*e[5mC]*eG*e[5mC]*e[5mC]*d[5mC]*d[5mC]*dT*dT*d[5mC]*dT*d[5mC]*d[5mC]*d[5mC]*d[5mC]*eG*e[5mC]*eA*eG*e[5mC]; antisense) [compound 771412],% Inhibition,[2],38%
same,% inhibition of SMAD7 mRNA expression,[4],52%
771642 (antisense eA*eG*eA*eA*eG*dA*dG*dT*dT*dA*dG*dG*dT*dG*dT*e[5mC]*eA*eG*e[5mC]*e[5mC]) [compound 771642],% inhibition of SMAD7 mRNA expression,[3],36%
771623 (antisense eT*eA*eA*e[5mC]*eA*d[5mC]*dA*d[5mC]*dA*dG*dG*dA*dT*dG*dG*eG*eA*eG*e[5mC]*eA) [compound 771623],% inhibition of SMAD7 mRNA expression,[2],51%
771718 (antisense eA*eA*eA*eG*eT*dT*d[5mC]*dT*dA*dG*dT*dG*dT*d[5mC]*dT*eA*e[5mC]*eT*e[5mC]*e[5mC]) [compound 771718],% Inhibition,[2],29%
771707 (antisense eT*eT*eG*eT*eT*d[5mC]*d[5mC]*dT*d[5mC]*dT*dG*d[5mC]*dA*d[5mC]*d[5mC]*e[5mC]*eT*eG*eG*eG) [compound 771707],% Inhibition,[2],42%
same,% inhibition of SMAD7 mRNA expression,[4],0%
771710 (antisense eG*eG*eG*e[5mC]*eT*dG*d[5mC]*d[5mC]*d[5mC]*dA*dT*dT*d[5mC]*d[5mC]*dT*eA*eG*e[5mC]*eG*e[5mC]) [compound 771710],% Inhibition,[2],40%
771897 (antisense e[5mC]*eT*e[5mC]*eT*e[5mC]*dA*dG*dG*dG*dT*d[5mC]*dT*d[5mC]*dA*dG*eT*eT*eT*eG*eA) [compound 771897],% inhibition of SMAD7 mRNA expression,[1],44%
771918 (antisense eA*eA*eG*eG*e[5mC]*d[5mC]*dA*d[5mC]*dA*dT*dT*dT*dT*dA*dG*eG*eT*eT*eA*eA) [compound 771918],% Inhibition,[2],12%
771517 (antisense e[5mC]*eT*e[5mC]*eA*eG*dG*dA*dG*dG*dA*dA*dA*dA*dT*dA*eT*eT*eA*eG*e[5mC]) [compound 771517],% inhibition of SMAD7 mRNA expression,[5],25%
771465 (antisense eA*eT*e[5mC]*e[5mC]*eA*dG*dA*dG*dA*dG*dG*dG*d[5mC]*dT*d[5mC]*e[5mC]*eT*eG*eG*eA) [compound 771465],% Inhibition of SMAD7 mRNA,[3],16%
same,% inhibition of SMAD7 mRNA expression,[1],0%

# From US10517889B2, “Modulators of SMAD7 expression” (Ionis Pharmaceuticals, Inc., priority 2017, dated 2019)
